Reference: the NIST ThermoML archive (doi:10.1021/acs.jced.6b00092)
Numbers after ± are expanded uncertainties.

Key:
[1] = Liquid; for mass density: 298.15 K, 101.33 kPa, Vibrating tube method; for vapor or sublimation pressure / Normal boiling temperature: Ebulliometric method (Recirculating still)
[2] = refractive index (Na D-line) (dimensionless); settings: 298.15 K; 101.33 kPa; Liquid; Standard Abbe refractometry

Compound | mass density [1] | vapor or sublimation pressure ([1]; 473.44 K) | vapor or sublimation pressure ([1]; 485.11 K) | vapor or sublimation pressure ([1]; 493.78 K) | Normal boiling temperature [1] | refractive index [2] | vapor or sublimation pressure ([1]; 379.01 K) | vapor or sublimation pressure ([1]; 389.52 K) | vapor or sublimation pressure ([1]; 397.48 K) | vapor or sublimation pressure ([1]; 442.09 K) | vapor or sublimation pressure ([1]; 453.84 K) | vapor or sublimation pressure ([1]; 462.67 K)
OCCCCO [1,4-butanediol] | 1012.96 ± 10 kg/m3 | 40 ± 7 kPa | 60 ± 8 kPa | 80 ± 9 kPa | 227.93 ± 4 °C | 1.4447 ± 0.0004 | – | – | – | – | – | –
CC(C)CCO [3-methylbutan-1-ol] | 807.3 ± 10 kg/m3 | – | – | – | 130.70 ± 4 °C | 1.4055 ± 0.0004 | 40 ± 8 kPa | 60 ± 12 kPa | 80 ± 16 kPa | – | – | –
CC(O)CC(C)(C)O (stereo not drawn) [2-methyl-2,4-pentanediol] | 915.6 ± 10 kg/m3 | – | – | – | 197.30 ± 4 °C | 1.4265 ± 0.0004 | – | – | – | 40 ± 7 kPa | 60 ± 8 kPa | 80 ± 9 kPa
